Laboratory results published in ChEMBL document CHEMBL5523702, “Synthesis and structure-activity optimization of azepane-containing derivatives as PTPN2/PTPN1 inhibitors” (Eur J Med Chem, 2024).
Converted amounts (≈) assume the structure as drawn.

Columns and labels:
[1] = AUC (0 to t) in rat at 10 mg/kg, po; type: ADME, organism-based; settings: in vivo
[2] = Clearance in mouse assessed as liver blood flow at 1 mg/kg, iv; type: ADME, organism-based; settings: in vivo
[3] = Plasma protein binding in human assessed as unbound fraction; type: ADME, cell-free
[4] = Half life in dog at 2 mg/kg, po; type: ADME, organism-based, Canis lupus familiaris; settings: in vivo
[5] = Volume of distribution at steady state in rat at 1 mg/kg, iv; type: ADME, organism-based; settings: in vivo, read-out: Vdss
[6] = AUC (0 to t) in dog at 2 mg/kg, po; type: ADME, organism-based, Canis lupus familiaris; settings: in vivo
[7] = AUC (0 to t) in mouse at 10 mg/kg, po; type: ADME, organism-based; settings: in vivo
[8] = Volume of distribution at steady state in mouse at 1 mg/kg, iv; type: ADME, organism-based; settings: in vivo, read-out: Vdss
[9] = Volume of distribution at steady state in dog at 1 mg/kg, iv; type: ADME, organism-based, Canis lupus familiaris; settings: in vivo, read-out: Vdss
[10] = Cmax in dog at 2 mg/kg, po; type: ADME, organism-based, Canis lupus familiaris; settings: in vivo
[11] = Oral bioavailability in rat at 10 mg/kg; type: ADME, organism-based; settings: in vivo
[12] = biological target: T1, Tyrosine-protein phosphatase non-receptor type 2 (Homo sapiens, UniProt P17706); test: Binding affinity to human PTPN2 assessed as dissociation constant measured upto 300 secs by SPR analysis
T1 sequence (P17706 whole entry): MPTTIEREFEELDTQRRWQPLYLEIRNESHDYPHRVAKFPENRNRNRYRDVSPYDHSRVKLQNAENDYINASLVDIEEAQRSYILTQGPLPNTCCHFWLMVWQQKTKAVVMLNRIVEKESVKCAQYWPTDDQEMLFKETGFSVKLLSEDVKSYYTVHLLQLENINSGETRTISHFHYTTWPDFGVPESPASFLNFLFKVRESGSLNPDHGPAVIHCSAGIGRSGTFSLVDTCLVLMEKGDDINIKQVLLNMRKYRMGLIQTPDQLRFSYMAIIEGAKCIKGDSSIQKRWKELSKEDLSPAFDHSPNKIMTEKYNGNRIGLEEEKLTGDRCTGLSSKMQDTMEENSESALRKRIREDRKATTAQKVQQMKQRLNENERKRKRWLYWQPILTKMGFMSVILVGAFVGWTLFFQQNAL

[13] = Cmax in mouse at 50 mg/kg, po; type: ADME, organism-based; settings: in vivo
MC-38 = test: Antitumor activity in mouse MC38 cells xenografted in C57BL/6J mouse model assessed as tumor growth inhibition at 30 mg/kg, po BID administered for 19 days relative to control; type: functional; settings: MC-38, 456 h, time 19 day, read-out: TGI
[14] = Plasma protein binding in mouse assessed as unbound fraction; type: ADME, cell-free
[15] = Inhibition of PTPN2 in IFN-gamma induced mouse B16-F10 cells; type: cell-based
[16] = Cmax in mouse at 10 mg/kg, po; type: ADME, organism-based; settings: in vivo
[17] = biological target: T2, Tyrosine-protein phosphatase non-receptor type 1 (Homo sapiens, UniProt P18031); test: Inhibition of human PTP1B
T2 sequence (P18031 whole entry): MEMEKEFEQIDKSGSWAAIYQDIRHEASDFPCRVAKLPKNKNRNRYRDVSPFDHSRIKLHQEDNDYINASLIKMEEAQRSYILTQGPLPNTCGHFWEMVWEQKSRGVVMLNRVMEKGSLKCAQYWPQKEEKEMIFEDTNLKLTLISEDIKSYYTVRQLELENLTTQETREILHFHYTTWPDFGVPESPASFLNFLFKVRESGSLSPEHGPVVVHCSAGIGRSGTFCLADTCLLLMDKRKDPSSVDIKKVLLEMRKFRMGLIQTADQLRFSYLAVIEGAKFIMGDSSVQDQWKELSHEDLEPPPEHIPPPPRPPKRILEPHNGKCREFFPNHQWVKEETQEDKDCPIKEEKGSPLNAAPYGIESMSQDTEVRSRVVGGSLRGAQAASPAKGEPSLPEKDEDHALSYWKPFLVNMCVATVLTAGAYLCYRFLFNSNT

[18] = Oral bioavailability in mouse at 50 mg/kg; type: ADME, organism-based; settings: in vivo
[19] = AUC (0 to t) in mouse at 50 mg/kg, po; type: ADME, organism-based; settings: in vivo
[20] = Oral bioavailability in dog at 2 mg/kg; type: ADME, organism-based, Canis lupus familiaris; settings: in vivo
[21] = Plasma protein binding in rat assessed as unbound fraction; type: ADME, cell-free
[22] = Toxicity in C57BL/6J mouse assessed as effect on body weight at 30 mg/kg, po BID measured after 19 days; type: organism-based; settings: in vivo, 456 h, time 19 day
[23] = Oral bioavailability in mouse at 10 mg/kg; type: ADME, organism-based; settings: in vivo
[24] = Cmax in rat at 10 mg/kg, po; type: ADME, organism-based; settings: in vivo
[25] = biological target: T1, Tyrosine-protein phosphatase non-receptor type 2; test: Inhibition of human PTPN2 using DiFMUP as substrate by fluorescence based phosphatase assay
[26] = Half life in mouse at 10 mg/kg, po; type: ADME, organism-based; settings: in vivo
[27] = Half life in rat at 10 mg/kg, po; type: ADME, organism-based; settings: in vivo
[28] = Half life in mouse at 50 mg/kg, po; type: ADME, organism-based; settings: in vivo
[29] = Clearance in rat assessed as liver blood flow at 1 mg/kg, iv; type: ADME, organism-based; settings: in vivo
[30] = Clearance in dog assessed as liver blood flow at 1 mg/kg, iv; type: ADME, organism-based, Canis lupus familiaris; settings: in vivo
[31] = Cmax in mouse at 1 mg/kg, iv; type: ADME, organism-based; settings: in vivo
[32] = Half life in mouse at 1 mg/kg, iv; type: ADME, organism-based; settings: in vivo
[33] = Solubility of compound in FaSSIF at pH 7.4
[34] = Apparent permeability of compound in human Caco-2 cells across basolateral to apical side
[35] = Apparent permeability of compound in human Caco-2 cells across apical to basolateral side
[36] = Solubility of compound in FeSSIF at pH 7.4
[37] = Efflux ratio of apparent permeability in human Caco-2 cells across basolateral to apical side over apical to basolateral side
[38] = AUC (0 to t) in mouse at 1 mg/kg, iv; type: ADME, organism-based; settings: in vivo
[39] = Kinetic solubility of the compound at pH 7.4; settings: buffer

CCN1CCc2cc(O)c(N3CC(=O)NS3(=O)=O)c(F)c2CC1
AUC(0-t) [1]: 1940 ng·h/mL
LBF [2]: 12.7%
fraction unbound [3]: 0.804
half-life [4]: 1.31 h
Vd [5]: 0.26 L/kg
AUC(0-t) [6]: 1430 ng·h/mL
AUC(0-t) [7]: 20900 ng·h/mL
Vd [8]: 0.4 L/kg
Vd [9]: 0.35 L/kg
Cmax [10]: 402 ng/mL
bioavailability [11]: 19%
Kd [12]: 8.7 nM
Cmax [13]: 17800 ng/mL
inhibition in vivo at 30 mg/kg (MC-38): 89%
fraction unbound [14]: 0.884
IC50 ([15]; Mus musculus, B16-F10): 212 nM
Cmax [16]: 4750 ng/mL
IC50 [17]: 3.09 nM
bioavailability [18]: 93%
AUC(0-t) [19]: 69200 ng·h/mL
bioavailability [20]: 19%
fraction unbound [21]: 0.815
Activity [22]: Non-Toxic
bioavailability [23]: 140%
Cmax [24]: 368 ng/mL
IC50 [25]: 9.3 nM
half-life [26]: 2.37 h
half-life [27]: 2.37 h
half-life [28]: 2.1 h
LBF [29]: 15%
LBF [30]: 14.1%

O=C1CN(c2c(O)cc3c(c2F)CCN(CC(F)F)CC3)S(=O)(=O)N1
IC50 ([15]; Mus musculus, B16-F10): 5330 nM
IC50 [25]: 100 nM

CC(C)CCN[C@@H]1CCc2cc(O)c(N3CC(=O)NS3(=O)=O)c(F)c2C1 [OSUNPROTAFIB]
AUC(0-t) [1]: 173 ng·h/mL
Cmax [31]: 1860 ng/mL
LBF [2]: 22.1%
half-life [32]: 1.13 h
fraction unbound [3]: 0.585
half-life [4]: 3.41 h
solubility [33]: 206 µM (≈ 79.4 µg/mL)
Vd [5]: 0.33 L/kg
AUC(0-t) [6]: 319 ng·h/mL
AUC(0-t) [7]: 903 ng·h/mL
Vd [8]: 0.68 L/kg
Vd [9]: 0.31 L/kg
Cmax [10]: 67 ng/mL
bioavailability [11]: 1.4%
Cmax [13]: 278 ng/mL
fraction unbound [14]: 0.978
IC50 ([15]; Mus musculus, B16-F10): 44 nM
Cmax [16]: 78 ng/mL
IC50 [17]: 0.69 nM
Papp B→A [34]: 0.093 ×10⁻⁶ cm/s
Papp A→B [35]: 1.43 ×10⁻⁶ cm/s
bioavailability [18]: 9%
AUC(0-t) [19]: 3820 ng·h/mL
solubility [36]: 223 µM (≈ 86 µg/mL)
bioavailability [20]: 6%
fraction unbound [21]: 0.896
bioavailability [23]: 11%
Cmax [24]: 38 ng/mL
IC50 [25]: 2.2 nM
half-life [26]: 4.21 h
half-life [28]: 4.86 h
efflux ratio [37]: 0.065
LBF [29]: 24.9%
LBF [30]: 20.9%
AUC(0-t) [38]: 851 ng·h/mL
solubility kinetic [39]: 204 µM (≈ 78.6 µg/mL)

O=C1CN(c2c(O)cc3c(c2F)CCN(CCC2CC2)CC3)S(=O)(=O)N1
AUC(0-t) [7]: 1320 ng·h/mL
IC50 ([15]; Mus musculus, B16-F10): 117 nM
Cmax [16]: 328 ng/mL
IC50 [25]: 4.3 nM
half-life [26]: 4.64 h

O=C1CN(c2c(O)cc3c(c2F)CCN(CCCC2CC2)CC3)S(=O)(=O)N1
AUC(0-t) [7]: 3480 ng·h/mL
IC50 ([15]; Mus musculus, B16-F10): 247 nM
Cmax [16]: 621 ng/mL
IC50 [25]: 4.5 nM
half-life [26]: 4.55 h

CC(C)N1CCc2cc(O)c(N3CC(=O)NS3(=O)=O)c(F)c2CC1
IC50 ([15]; Mus musculus, B16-F10): 378 nM
IC50 [25]: 9.2 nM

CC1Cc2c(cc(O)c(N3CC(=O)NS3(=O)=O)c2F)CCN1 (racemic)
AUC(0-t) [7]: 1360 ng·h/mL
Cmax [16]: 392 ng/mL
half-life [26]: 1.25 h

CC1Cc2c(cc(O)c(N3CC(=O)NS3(=O)=O)c2F)CCN1 (stereo in doubt; 10b)
IC50 ([15]; b16-f10): 455 nM
IC50 [25]: 17.4 nM

CC1Cc2c(cc(O)c(N3CC(=O)NS3(=O)=O)c2F)CCN1C (racemic)
IC50 ([15]; Mus musculus, B16-F10): 669 nM
IC50 [25]: 17.4 nM

O=C1CN(c2c(O)cc3c(c2F)CCNCC3)S(=O)(=O)N1
IC50 ([15]; Mus musculus, B16-F10): 350 nM
IC50 [25]: 19.7 nM

CC1Cc2c(cc(O)c(N3CC(=O)NS3(=O)=O)c2F)CCN1CC1CC1 (racemic)
IC50 ([15]; Mus musculus, B16-F10): 1030 nM
IC50 [25]: 28.1 nM

O=C1CN(c2c(O)cc3c(c2F)CCN(CC2CC2)CC3)S(=O)(=O)N1
fraction unbound [3]: 0.638
AUC(0-t) [7]: 5140 ng·h/mL
fraction unbound [14]: 0.801
IC50 ([15]; Mus musculus, B16-F10): 399 nM
Cmax [16]: 899 ng/mL
Papp B→A [34]: 0.18 ×10⁻⁶ cm/s
Papp A→B [35]: 0.28 ×10⁻⁶ cm/s
IC50 [25]: 6.04 nM
half-life [26]: 4.34 h
solubility kinetic [39]: 202 µM (≈ 74.6 µg/mL)

CC1Cc2c(cc(O)c(N3CC(=O)NS3(=O)=O)c2F)CCN1 (stereo in doubt; 10a)
IC50 ([15]; Mus musculus, B16-F10): 276 nM
IC50 [25]: 5 nM

CCC1Cc2c(cc(O)c(N3CC(=O)NS3(=O)=O)c2F)CCN1 (racemic)
IC50 ([15]; Mus musculus, B16-F10): 425 nM
IC50 [25]: 9.73 nM

CCC1Cc2c(cc(O)c(N3CC(=O)NS3(=O)=O)c2F)CCN1C (racemic)
IC50 ([15]; Mus musculus, B16-F10): 17700 nM
IC50 [25]: 75.5 nM

CN1CCc2cc(O)c(N3CC(=O)NS3(=O)=O)c(F)c2CC1
Cmax [31]: 3200 ng/mL
half-life [32]: 0.9 h
fraction unbound [3]: 0.998
AUC(0-t) [7]: 7980 ng·h/mL
fraction unbound [14]: 0.852
IC50 ([15]; Mus musculus, B16-F10): 461 nM
Cmax [16]: 2290 ng/mL
Papp A→B [35]: < 0.48 ×10⁻⁶ cm/s
fraction unbound [21]: 0.874
IC50 [25]: 4.5 nM
half-life [26]: 2.22 h
AUC(0-t) [38]: 1490 ng·h/mL
